One assay concerns the target T1, 5-HT2AR (Homo sapiens, UniProt P28223).
T1 construct: host or cells: HEK293, transient
As to the kind of experiment: Radioligand binding (competitive displacement and saturation), cell membranes. The settings on record: for Ki: pKi 5-HT2AR. Here is the method: (§1) Transfections were performed for 48 hours.

Assay [1] deals with T2, 5-HT2BR (Homo sapiens, UniProt P41595). The assay is described as follows: biochemical.
Experimental: (§2) All cells were grown adherently in 10 cm plates in a humidified incubator kept at 37° C. and 5% carbon dioxide. […] Transient transfections were used to express 5-HT2A, 5-HT2C, α1A- or α1B-adrenergic receptors, whereas 5-HT7(a)Rs were stably expressed in HEK293 cells. H1Rs were transiently expressed, and D2Rs were stably expressed in CHO cells.
(§3) Transient transfections were performed on cells in the log growth phase (70-90% confluence). […] Each solution was mixed by inversion before combining, mixed by inversion again, and incubated at 37° C. for 30 minutes. Cells were then washed with 1 mL 1×PBS, followed by the gentle addition of 5 mL of transfection cocktail and 5 mL of cell culture medium with 5% (final) dialyzed FBS. Transfections were performed for 48 hours.
(§4) The affinity of ligands was determined via radioligand binding techniques using human recombinant receptors expressed in mammalian clonal cells.
(§5) Saturation binding experiments were performed on membranes expressing 5-HT2A, 5-HT2B, 5-HT2C, or H1Rs in triplicate across 8 concentrations. Competition binding assays were performed in at least triplicate with approximate Kd concentrations of radioligand. Total and nonspecific binding were determined in octet. […] Serial dilutions of unlabeled compound were made in assay buffer at 2.5× the final concentration using 10 mM DMSO stocks (final [DMSO]≤1%). Assays were terminated using rapid filtration via Whatman GF/B Fired Filters (Brandel Inc., Gaithersburg, MD) soaked in 0.3% (w/v) PEI, using an automated Tomtec Harvester 96 (Hamden, CT).
(§6) Filters were washed with 50 mM Tri-HCl (pH=7.4, 4° C.) before being oven dried and placed into scintillation vials containing 1 mL SX18-4 ScintiVerse^TM BD Cocktail (Fisher Chemical, Fair Lawn, NJ).
(§7) GraphPad Prism (La Jolla, CA) version 9.1.1 was used to analyze all experimental data in this work. To analyze data from saturation binding studies, the radioligand counts per minute (cpm) were normalized to fmol/mg protein bound and then fit the data to a ‘specific binding with hill slope’ model. For competitive radioligand displacement studies, a baseline correction was performed by subtracting the mean nonspecific binding value from the radioligand binding values with and without competitor to obtain specific binding values. Specific binding values were then normalized such that total binding in the absence of competitor represented 100% radioligand binding, and the radioactivity associated with each concentration of competitor was a percentage of total binding. The normalized data was then fit to the ‘one-site Fit Ki’ nonlinear regression model.
The target in a further assay is T3, 5-HT2CR (Homo sapiens, UniProt P28335).
T3 sequence (P28335 33-458): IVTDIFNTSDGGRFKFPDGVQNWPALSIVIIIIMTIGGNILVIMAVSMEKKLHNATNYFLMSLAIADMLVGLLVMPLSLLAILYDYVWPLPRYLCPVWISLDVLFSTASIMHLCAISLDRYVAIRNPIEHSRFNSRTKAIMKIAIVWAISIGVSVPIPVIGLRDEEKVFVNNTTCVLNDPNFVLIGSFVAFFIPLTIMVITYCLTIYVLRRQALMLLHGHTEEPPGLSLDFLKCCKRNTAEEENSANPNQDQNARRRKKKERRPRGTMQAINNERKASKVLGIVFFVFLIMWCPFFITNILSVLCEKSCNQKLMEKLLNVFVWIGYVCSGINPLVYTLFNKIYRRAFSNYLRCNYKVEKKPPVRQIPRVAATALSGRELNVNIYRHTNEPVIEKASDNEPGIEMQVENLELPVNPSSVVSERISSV
As to the kind of experiment: biochemical.

The next assay addresses T4, H1R (Homo sapiens, UniProt P35367).
T4 construct: host or cells: CHO, transient
As to the kind of experiment: Radioligand binding (competitive displacement and saturation), cell membranes. Here is the method:
as §1

In assay [2] the target is T2, 5-HT2BR. Described as above.
Experimental: as §2, §3, §4, §5, §6, §7
[3] abbreviates: displacement of [^3H]ketanserin, mean of n independent experiments, ± SD where n ≥ 5.
The mark [4] stands for this setting: pKi H1R, displacement of [^3H]mepyramine, mean of n independent experiments, ± SD where n ≥ 5.

Structures are written as SMILES. Read-outs that look alike come from different tables or passages of the source.

T4 sequence (P35367 whole entry): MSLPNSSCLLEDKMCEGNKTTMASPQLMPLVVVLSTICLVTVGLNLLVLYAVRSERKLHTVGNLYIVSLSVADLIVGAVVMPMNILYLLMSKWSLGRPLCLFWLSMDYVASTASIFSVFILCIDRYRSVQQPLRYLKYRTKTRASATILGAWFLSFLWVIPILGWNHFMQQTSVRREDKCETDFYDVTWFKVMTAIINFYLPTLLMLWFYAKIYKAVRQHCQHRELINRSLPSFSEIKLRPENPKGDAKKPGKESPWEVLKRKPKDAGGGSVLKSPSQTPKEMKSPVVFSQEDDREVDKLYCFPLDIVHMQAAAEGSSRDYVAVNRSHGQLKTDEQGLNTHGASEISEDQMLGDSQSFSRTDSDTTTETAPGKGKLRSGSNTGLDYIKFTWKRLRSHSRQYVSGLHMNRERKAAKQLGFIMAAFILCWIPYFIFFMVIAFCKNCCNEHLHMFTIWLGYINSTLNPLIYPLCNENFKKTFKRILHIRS
T2 sequence (P41595 whole entry): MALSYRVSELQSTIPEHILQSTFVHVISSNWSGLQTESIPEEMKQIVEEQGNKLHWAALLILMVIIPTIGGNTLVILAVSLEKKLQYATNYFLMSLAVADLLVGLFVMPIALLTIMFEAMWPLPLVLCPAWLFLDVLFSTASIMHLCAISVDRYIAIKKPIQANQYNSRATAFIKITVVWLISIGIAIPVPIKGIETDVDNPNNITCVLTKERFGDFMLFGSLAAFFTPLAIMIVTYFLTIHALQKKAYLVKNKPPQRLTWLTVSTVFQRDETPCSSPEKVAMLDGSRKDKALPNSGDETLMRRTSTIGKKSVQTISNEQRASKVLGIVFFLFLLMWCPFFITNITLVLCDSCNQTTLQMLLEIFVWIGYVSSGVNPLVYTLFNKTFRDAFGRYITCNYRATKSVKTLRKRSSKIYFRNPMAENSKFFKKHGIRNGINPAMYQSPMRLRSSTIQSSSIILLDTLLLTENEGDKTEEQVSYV
T1 sequence (P28223 whole entry): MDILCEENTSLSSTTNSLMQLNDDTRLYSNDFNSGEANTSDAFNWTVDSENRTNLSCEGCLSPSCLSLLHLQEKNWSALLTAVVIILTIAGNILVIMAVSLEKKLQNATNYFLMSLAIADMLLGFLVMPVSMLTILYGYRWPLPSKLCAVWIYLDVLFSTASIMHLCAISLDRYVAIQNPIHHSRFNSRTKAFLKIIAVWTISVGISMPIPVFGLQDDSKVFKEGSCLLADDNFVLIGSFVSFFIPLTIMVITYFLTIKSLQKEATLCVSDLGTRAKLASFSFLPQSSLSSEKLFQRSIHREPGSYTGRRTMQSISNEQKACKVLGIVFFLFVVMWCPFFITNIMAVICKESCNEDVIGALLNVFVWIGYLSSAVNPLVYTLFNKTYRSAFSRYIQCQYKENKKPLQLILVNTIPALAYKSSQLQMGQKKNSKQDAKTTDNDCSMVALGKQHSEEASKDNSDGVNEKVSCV
Experimental for 5-HT2CR: as §2, §3, §4, §5, §6, §7

Take `CN(C)[C@@H]1Cc2ccccc2[C@H](c2cccc(Br)c2)C1` (single isomer, unassigned) [(2R,4R)-3a, Cis-4-(3-bromophenyl)-N, N-dimethyl-1,2,3,4-tetrahydronaphthalen-2-amine]: the Ki is 31.6 nM on 5-HT2AR (setting [3]), 85.1 nM at 5-HT2BR [1] and 57.5 nM at 5-HT2CR.
`CN(C)[C@@H]1Cc2ccccc2[C@H](c2cccc(Cl)c2)C1` (single isomer, unassigned) [(2R,4R)-3b, Cis-4-(3-chlorophenyl)-N, N-dimethyl-1,2,3,4-tetrahydronaphthalen-2-amine] showed a Ki on 5-HT2BR [1] of 115 nM.
Regarding `CN(C)[C@@H]1Cc2ccccc2[C@H](c2cccc(F)c2)C1` (single isomer, unassigned) [(2R,4R)-3b′, Cis-4-(3-fluorophenyl)-N, N-dimethyl-1,2,3,4-tetrahydronaphthalen-2-amine], the Ki was 447 nM at 5-HT2BR [1] and 251 nM on 5-HT2CR.
Turning to `CN(C)[C@@H]1Cc2ccccc2[C@H](c2cccc(-c3cccs3)c2)C1` (single isomer, unassigned) [(2R,4R)-3c, Cis-4-(3-(thiophen-2-yl)phenyl)-N,N-dimethyl-1,2,3,4-tetrahydronaphthalen-2-amine], the “selectivity for 5-HT2ARs over 5-HT2B and H1Rs” value on 5-HT2AR (one figure for both off-targets) is reported as 30-60 fold. In addition, the Ki is 3.55 nM at 5-HT2AR, 234 nM on H1R (read-out: pKi H1R (converted)), 105 nM on 5-HT2BR [1] and 24 nM on 5-HT2CR.
`CN(C)[C@@H]1Cc2ccccc2[C@H](c2cccc(-c3ccco3)c2)C1` (single isomer, unassigned) [(2R,4R)-3d, Cis-4-(3-(furan-2-yl)phenyl)-N,N-dimethyl-1,2,3,4-tetrahydronaphthalen-2-amine] showed a Ki at H1R (setting [4]) of 50.1 nM.
On to `CN(C)[C@@H]1Cc2ccccc2[C@H](c2cccc(-c3ccccc3)c2)C1` (single isomer, unassigned) [(2R,4R)-3f, Cis-4-([1,1′-biphenyl]-3-yl)-N,N-dimethyl-1,2,3,4-tetrahydronaphthalen-2-amine], for which the Ki on 5-HT2BR [1] is 117 nM; on 5-HT2CR, 26.9 nM.
Turning to `CN(C)[C@@H]1Cc2ccccc2[C@H](c2cccc(-c3ccc(Cl)cc3)c2)C1` (single isomer, unassigned) [(2R,4R)-3j, Cis-4-(4′-chloro-[1,1′-biphenyl]-3-yl)-N,N-dimethyl-1,2,3,4-tetrahydronaphthalen-2-amine], the Ki was 1.7 nM on 5-HT2AR (setting [3]) and 9.33 nM on 5-HT2CR. On H1R, the “pKi H1R” value is 7.84^(2) 7.89-7.78 8.84^(3) 8.86-8.82 ND 6.40^(3) 6.41-6.40.
With `CN(C)c1ccc(-c2cccc([C@@H]3C[C@H](N(C)C)Cc4ccccc43)c2)cc1` (single isomer, unassigned) [(2R,4R)-3k, Cis-4-(4′-(dimethylamino)-[1,1′-biphenyl]-3-yl)-N,N-dimethyl-1,2,3,4-tetrahydro-naphthalen-2-amine], the “pKi 5-HT2BR” value at 5-HT2BR [2] is reported as 5.52^(2) 5.68-5.37 7.10 ± 0.21^(5) 7.40-6.82 5.97^(2) 6.08-5.87 5.97^(2) 6.09-5.86.
With `CN(C)[C@@H]1Cc2ccccc2[C@@H](c2cccc(-c3ccccc3)c2)C1` (single isomer, unassigned) [(2R,4S)-2f, Trans-4-([1,1′-biphenyl]-3-yl)-N,N-dimethyl-1,2,3,4-tetrahydronaphthalen-2-amine], the Ki on 5-HT2BR [1] is 112 nM; at 5-HT2CR, 69.2 nM.
As to `CN(C)C1Cc2ccccc2C(c2cccc(-c3ccccc3F)c2)C1` (single isomer, unassigned) [(2R,4S)-2g, Trans-4-(2′-fluoro-[1,1′-biphenyl]-3-yl)-N, N-dimethyl-1,2,3,4-tetrahydronaphtha-len-2-amine], the Ki is 30.9 nM at 5-HT2AR (setting [3]) and 43.7 nM at 5-HT2BR [1]. Moreover, the “pKi H1R” value at H1R is 6.93^(2) 7.02-6.84 8.75^(4) 9.1-8.62 ND 6.54^(2) 6.67-6.40.
`CN(C)[C@@H]1Cc2ccccc2[C@@H](c2cccc(-c3ccco3)c2)C1` (single isomer, unassigned) [(2S,4R)-2d, Trans-4-(3-(furan-2-yl)phenyl)-N,N-dimethyl-1,2,3,4-tetrahydronaphthalen-2-amine] displayed a Ki on H1R (setting [4]) of 3.39 nM.
For `CN(C)[C@@H]1Cc2ccccc2[C@@H](c2cccc(-c3ccncc3)c2)C1` (single isomer, unassigned) [(2S,4R)-2e, Trans-4-(3-(pyridin-4-yl)phenyl)-N,N-dimethyl-1,2,3,4-tetrahydronaphthalen-2-amine], the Ki on 5-HT2AR (setting [3]) is 7.41 nM; at H1R (setting [4]) it was 1.38 nM; on 5-HT2CR, 42.7 nM.
In the case of `CN(C)[C@@H]1Cc2ccccc2[C@@H](c2cccc(-c3ccccc3)c2)C1` (single isomer, unassigned) [(2S,4R)-2f, Trans-4-([1,1′-biphenyl]-3-yl)-N,N-dimethyl-1,2,3,4-tetrahydronaphthalen-2-amine], the results for the Ki on 5-HT2BR [1] and on 5-HT2CR were 52.5 nM and 3.31 nM, respectively.
As for `CN(C)C1Cc2ccccc2C(c2cccc(-c3ccccc3F)c2)C1` (single isomer, unassigned) [(2S,4R)-2g, Trans-4-(2′-fluoro-[1,1′-biphenyl]-3-yl)-N, N-dimethyl-1,2,3,4-tetrahydronaphtha-len-2-amine], the values for the Ki at 5-HT2AR (setting [3]), on H1R (setting [4]) and at 5-HT2BR [1] were 0.813 nM, 1.78 nM and 81.3 nM, respectively.
`CN(C)[C@@H]1Cc2ccccc2[C@H](c2cccc(Cl)c2)C1` (single isomer, unassigned) [(2S,4S)-3b, Cis-4-(3-chlorophenyl)-N, N-dimethyl-1,2,3,4-tetrahydronaphthalen-2-amine]: at 5-HT2BR [1], the Ki was 389 nM.
`CN(C)[C@@H]1Cc2ccccc2[C@H](c2cccc(F)c2)C1` (single isomer, unassigned) [(2S,4S)-3b′, Cis-4-(3-fluorophenyl)-N, N-dimethyl-1,2,3,4-tetrahydronaphthalen-2-amine]: the Ki is 912 nM on 5-HT2BR [1] and 437 nM at 5-HT2CR.
In the case of `CN(C)[C@@H]1Cc2ccccc2[C@H](c2cccc(-c3cccs3)c2)C1` (single isomer, unassigned) [(2S,4S)-3c, Cis-4-(3-(thiophen-2-yl)phenyl)-N,N-dimethyl-1,2,3,4-tetrahydronaphthalen-2-amine], the Ki is 151 nM on 5-HT2AR, 437 nM on H1R (read-out: pKi H1R (converted)), 89.1 nM at 5-HT2BR [1] and 224 nM on 5-HT2CR.
On to `CN(C)[C@@H]1Cc2ccccc2[C@H](c2cccc(-c3cccc(F)c3)c2)C1` (single isomer, unassigned) [(2S,4S)-3h, Cis-4-(3′-fluoro-[1,1′-biphenyl]-3-yl)-N,N-dimethyl-1,2,3,4-tetrahydronaphthalen-2-amine], for which the “pKi 5-HT2AR” value on 5-HT2AR (setting [3]) is given as 7.69. The “pKi H1R” value at H1R was 7.31 ^(2) 7.39-7.23 8.96^(3) 9.11-8.88 6.20^(2) 6.23-6.18 6.30 ± 0.10^(5) 6.42-6.14.
On to `CN(C)[C@@H]1Cc2ccccc2[C@H](c2cccc(-c3ccc(Cl)cc3)c2)C1` (single isomer, unassigned) [(2S,4S)-3j, Cis-4-(4′-chloro-[1,1′-biphenyl]-3-yl)-N,N-dimethyl-1,2,3,4-tetrahydronaphthalen-2-amine], for which the Ki at 5-HT2AR (setting [3]) was 63.1 nM; on 5-HT2CR, 97.7 nM.
With `CN(C)c1ccc(-c2cccc([C@@H]3C[C@H](N(C)C)Cc4ccccc43)c2)cc1` (single isomer, unassigned) [(2S,4S)-3k, Cis-4-(4′-(dimethylamino)-[1,1′-biphenyl]-3-yl)-N,N-dimethyl-1,2,3,4-tetrahydro-naphthalen-2-amine], at 5-HT2BR [2], the “pKi 5-HT2BR” value is 5.52^(2) 5.68-5.37 7.10 ± 0.21^(5) 7.40-6.82 5.97^(2) 6.08-5.87 5.97^(2) 6.09-5.86.
Regarding `CN(C)C1Cc2ccccc2C(c2cccc(-c3cccc(F)c3)c2)C1` [(2R,4S)-2h, Trans-4-(3′-fluoro-[1,1′-biphenyl]-3-yl)-N,N-dimethyl-1,2,3,4-tetrahydronaphtha-len-2-amine], at 5-HT2AR (setting [3]), the “pKi 5-HT2AR” value is 8.03. The Ki at H1R (setting [4]) is 49 nM.
Turning to `CN(C)C1Cc2ccccc2C(c2cccc(-c3ccc(Cl)cc3)c2)C1` [(2R,4S)-2j, Trans-4-(4′-chloro-[1,1′-biphenyl]-3-yl)-N,N-dimethyl-1,2,3,4-tetrahydronaphtha-len-2-amine], the results for the Ki on 5-HT2AR (setting [3]), at H1R (setting [4]) and on 5-HT2CR were 5.37 nM, 14.5 nM and 7.08 nM, respectively.
Regarding `CN(C)c1ccc(-c2cccc(C3CC(N(C)C)Cc4ccccc43)c2)cc1` [(2R,4S)-2k, Trans-4-(4′-(dimethylamino)-[1,1′-biphenyl]-3-yl)-N,N-dimethyl-1,2,3,4-tetra-hydronaph-thalen-2-amine], the “pKi 5-HT2BR” value at 5-HT2BR [2] is 5.52^(2) 5.68-5.37 7.10 ± 0.21^(5) 7.40-6.82 5.97^(2) 6.08-5.87 5.97^(2) 6.09-5.86.
`CN(C)[C@@H]1Cc2ccccc2[C@@H](c2cccc(-c3cccc(F)c3)c2)C1` [(2S,4R)-2h, Trans-4-(3′-fluoro-[1,1′-biphenyl]-3-yl)-N,N-dimethyl-1,2,3,4-tetrahydronaphtha-len-2-amine]: on 5-HT2AR (setting [3]), the “pKi 5-HT2AR” value turned out to be 9.22. Further, the “pKi H1R” value on H1R (displacement of [^3H]mepyramine, mean of n independent experiments, ± SD where n ≥ 5) stood at 8.96.
As to `CN(C)[C@@H]1Cc2ccccc2[C@@H](c2cccc(-c3ccc(Cl)cc3)c2)C1` [(2S,4R)-2j, Trans-4-(4′-chloro-[1,1′-biphenyl]-3-yl)-N,N-dimethyl-1,2,3,4-tetrahydronaphtha-len-2-amine], the Ki is 0.288 nM on 5-HT2AR (setting [3]), 1.45 nM at H1R (setting [4]) and 4.9 nM on 5-HT2CR.

These data come from patent US20240327353A1.
